In brackets after ≈: the same amount, converted by molar mass.

In US20240382425A1 (BS BIOTECHNA SPOLKA Z OGRANICZONA ODPOWIEDZIALNOSCIA, priority 2021, published 2024) one finds solubility and EC50 data, which are given here for 1 compound.

Series [1] in a line: Solubility of the deprotonated form of emetine in water. It counts as physicochemical. On the procedure:
The total volume of titrant utilised was 1.5 mL. The precipitate was centrifuged at 6000 RPM for 20 minutes and separated from the solution. […] The precipitate was dried in a vacuum dryer at 30° C., 100 mbar pressure for 5 h and used in the next synthetic steps.

The test system of series [2] is MERS and SARS coronaviruses. The note with it: lowest among over 290 drugs tested; cited from earlier work.

What is called solubility is the concentration that dissolves in the medium under given conditions. A lower solubility goes with a poorly soluble substance. A word on the EC50: it is the concentration that produces a half-maximal response. In the case of `CC[C@H]1CN2CCc3cc(OC)c(OC)cc3[C@@H]2C[C@@H]1C[C@H]1NCCc2cc(OC)c(OC)cc21` [emetine], the solubility in series [1] was 1790 µg/mL (≈ 3.72 mM). Further, in series [2], the EC50 is less than 20 nM.
